According to patent publication US5366983A, “Use of quaternary ammonium compounds to remove salmonella contamination from meat products” (The Board of Trustees of The University of Arkansas, priority 1992, dated 1994):

System: Salmonella typhimurium ATCC 14028
Experiment: Effect on viability of Salmonella in suspension (Tables D-1 to D-3)
Type: cell-based
Conditions: Table D-1
In short: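 Bactericidal activity against Salmonella measured in suspension; EC50 derived by nonlinear regression of kill versus molar concentration. Na2-EDTA and EGTA dissolved and diluted in 0.04 M PPB; EGTA heated 15 minutes at 80° C., adjusted to pH 7.0 with NaOH, filter-sterilized.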

For `CCCCCCCCCCCCCCCC[n+]1ccccc1` [CPC, cetylpyridinium chloride], the bacterial viability (20 ug/ml) was 1.84 ± 0.087 × 10^8 CFU/ml, the bacterial viability (22.5 ug/ml) was 9.07 ± 2.16 × 10^7 CFU/ml and the bacterial viability (25 ug/ml) was 5.15 ± 1.18 × 10^6 CFU/ml.
